Source: paper PMC4750852, “Synergistic Malaria Parasite Killing by Two Types of Plasmodial Surface Anion Channel Inhibitors” (PLoS ONE, 2016)
Where two headings read alike, the source gives them in different places. Blank lines part the entries; values can stand above or below the compound they belong to.

What was measured:
[1] = tested on: plasmodial surface anion channel (PSAC), primary transport; assay: Osmotic lysis kinetics, primary transport (sorbitol / alanine uptake) in infected erythrocytes; assay type: cell-based, Plasmodium falciparum
Protocol: (§1) Enriched cells were washed in HBS (150 mM NaCl, 20 mM Na-HEPES, 0.1 mg/mL BSA, pH 7.5) and used for continuous tracking of osmotic lysis in permeant solutes as described. PSAC-mediated uptake was initiated by resuspension of cells in osmotic lysis solutions containing 20 mM Na-HEPES, 0.1 mg/mL BSA with permeant solute or salt added at 280–290 mOsm; where present, inhibitors were added from concentrated stocks in DMSO. Osmotic swelling and lysis at 37°C was then kinetically tracked by recording the transmittance of 700 nm light through the 1 mL cell suspension (Beckman Coulter spectrophotometer, Indianapolis, IN). Regular manual resuspension was used to minimize the effects of cell settling. Solute permeability was calculated using locally developed script as described. The data are presented with normalization to inhibitor-free controls included in each experiment.

[2] = tested on: plasmodial surface anion channel (PSAC), residual transport; assay: Osmotic lysis kinetics, residual PhTMA+ transport in infected erythrocytes (with a primary component inhibitor present); assay type: cell-based, Plasmodium falciparum
Protocol: as §1

[3] = tested on: P. falciparum; assay: Parasite growth inhibition, SYBR Green I assay, 72 h; assay type: cell-based, Plasmodium falciparum; details: for Improvement in growth IC50 in PGIM relative to standard medium: ratio of IC50 standard RPMI 1640-based medium to PGIM, present and prior studies [2]
Protocol: Efficacy of inhibitors against in vitro parasite growth was evaluated with the SYBR Green I assay for parasite nucleic acid as described. […] These cultures were then lysed (20 mM Tris, 10 mM EDTA, 0.016% saponin, 1.6% Triton X-100, pH 7.5) and incubated for 45 min with SYBR Green I nucleic acid stain at a 5000-fold dilution (Invitrogen, Waltham, MA). The mean fluorescence of replicate wells (excitation, 485 nm; emission, 528 nm) was used to quantify parasite DNA content and growth after normalization to in-plate controls with and without 20 μM chloroquine (100 and 0% growth inhibition, respectively).

[4] = tested on: P. falciparum; assay: Fixed-ratio combination growth inhibition, isobologram analysis; assay type: cell-based, Plasmodium falciparum; details: combination of 0.82 μM cpd 1 and 0.35 μM PRT1-20
Protocol: Efficacy of inhibitors against in vitro parasite growth was evaluated with the SYBR Green I assay for parasite nucleic acid as described. […] These cultures were then lysed (20 mM Tris, 10 mM EDTA, 0.016% saponin, 1.6% Triton X-100, pH 7.5) and incubated for 45 min with SYBR Green I nucleic acid stain at a 5000-fold dilution (Invitrogen, Waltham, MA). The mean fluorescence of replicate wells (excitation, 485 nm; emission, 528 nm) was used to quantify parasite DNA content and growth after normalization to in-plate controls with and without 20 μM chloroquine (100 and 0% growth inhibition, respectively). Growth inhibition resulting from combinations of PSAC inhibitors was similarly evaluated using fixed ratios of the two compounds [28]. For each experiment, […] of the two inhibitors (10:0, 9:1, …, 1:9, 0:10) were prepared based on the optimal concentrations of each in isolated growth inhibition dose responses. For each ratio, serial dilutions were used to generate dose responses and permit calculation of IC50 values by interpolation; in each experiment, matched dose responses were included for each compound in isolation. […] For each inhibitor combination, synergistic action was quantified using the ∑FIC50 (sum of fractional inhibitor concentrations producing 50% block); values of this parameter below 0.7 indicate strong synergistic action.

[5] = tested on: plasmodial surface anion channel (PSAC), residual transport; assay: Osmotic lysis kinetics, residual proline transport with 200 μM furosemide; assay type: cell-based, Plasmodium falciparum; details: added to 200 μM furosemide; maximal inhibition less than with PhTMA+
Protocol: as §1, with “Transport measurements used synchronous trophozoite-stage infected erythrocytes enriched from P. falciparum cultures by Percoll/sorbitol separation to > 95% parasitemia. Enriched” for “Enriched”

[6] = tested on: P. knowlesi channel (PSAC); assay: Osmotic lysis kinetics in rhesus erythrocytes infected with P. knowlesi; assay type: cell-based; details: 3 μM inhibitor with 200 μM furosemide
Protocol: as §1

- IC50 ([3]; PGIM): 17.3 ± 1 nM
- IC50 ([3]; PGIM with isoleucine increased to 34 μM): 1250 ± 100 nM
- Improvement in growth IC50 in PGIM relative to standard medium [3]: significantly improved activity in PGIM
Compound: Cc1ccc(C)c(N2CCN(S(=O)(=O)c3ccc(-c4ccc(=O)[nH]n4)s3)CC2)c1 [ISG-21, reference compound]
- Effect on sorbitol uptake at selected concentration ([1]; 100 nM ISG-21, 2 μM TP-52, residual uptake of PhTMA+ remains): abolish sorbitol uptake
- Fold less effective against residual PhTMA+ transport than against sorbitol uptake ([2]; comparison of K0.5 values, PhTMA+ + 200 μM furosemide vs sorbitol): up to 3000 fold

- Concentration in the combination as share of the compound's single drug IC50 [4]: approximately 10%
Compound: CCCCOc1ccc(C(=O)Nc2ccc(-c3nn4c(C)nnc4s3)cc2)cc1 [PRT1-20]
- Action against the primary transport component compared to PRT-1 ([1]; sorbitol without furosemide, dose response): significantly reduced action
- Activity against residual PhTMA+ transport compared to PRT-1 ([2]; PhTMA+ with 200 μM furosemide, dose response): improved activity
- Parasite growth inhibition, single compound ([3]; applied individually, standard RPMI-1640 based media): low micromolar concentrations

- IC50 ([1]; sorbitol without furosemide, mean ± S.E.M., read-out: K0.5 against sorbitol uptake (primary channel route)): 590 ± 43 nM
- IC50 ([2]; PhTMA-Cl plus 100 nM ISG-21, read-out: K0.5 for block of residual PhTMA+ transport): 44 nM
- IC50 ([2]; PhTMA-Cl plus 2 μM TP-52, read-out: K0.5 for block of residual PhTMA+ transport): 56 nM
- IC50 ([2]; in combination with 200 μM furosemide, mean ± S.E.M., read-out: K0.5 for block of residual PhTMA+ uptake): 190 ± 3 nM
Compound: CCOc1ccc(C(=O)Nc2ccc(-c3nn4c(C)nnc4s3)cc2)cc1 [PRT-1]
- Effect on residual proline transport [5]: clearly reduced proline transport further
- Effect on residual PhTMA+ transport via the P. knowlesi channel [6]: inhibit
- Improvement in growth IC50 in PGIM relative to standard medium [3]: did not show measurable changes in efficacy in PGIM

Compound: O=C(COc1ccc2ccccc2c1)Nc1cccc(-c2nc3ncccc3o2)c1 [PRT-3]
- Effect on residual PhTMA+ transport via the P. knowlesi channel [6]: inhibit
- Improvement in growth IC50 in PGIM relative to standard medium [3]: did not show measurable changes in efficacy in PGIM
